US9415134B2, “Fosfomycin preparation, a method for producing the preparation, and a polymethylmethacrylate bone cement powder containing the preparation” (HERAEUS MEDICAL GMBH, priority 2014, dated 2016)

Assays:
[1] = biological target: MurA (UDP-N-acetylglucosamine-enolpyruvyl-transferase) (Escherichia coli, UniProt P0A749); details: cited from earlier work
[2] = tested on: gram-negative and gram-positive bacteria including methicillin-resistant staphylococci; details: cited from earlier work
[3] = tested on: vancomycin-resistant Staphylococcus aureus (VRS); details: cited from earlier work
[4] = tested on: vancomycin-resistant enterococci; details: cited from earlier work
ESBL = details: cited from earlier work
[5] = Hygroscopic properties of fosfomycin salts; type: physicochemical; details: salt alone, atmospheric humidity
Text: Both salts attract atmospheric humidity and deliquesce in the process. Experiments have shown that these salts, in the dry state, can be integrated into cement powders of polymethylmethacrylate bone cements. However, said cement powders also attract atmospheric humidity during storage on air, upon which the antibiotic particles deliquesce. This can cause the cement powder to clump. For this reason, both of these fosfomycin salts are unsuitable or poorly suitable for industrial production of antibiotic polymethylmethacrylate bone cement powders.

Chain of MurA (UDP-N-acetylglucosamine-enolpyruvyl-transferase) (P0A749 whole entry): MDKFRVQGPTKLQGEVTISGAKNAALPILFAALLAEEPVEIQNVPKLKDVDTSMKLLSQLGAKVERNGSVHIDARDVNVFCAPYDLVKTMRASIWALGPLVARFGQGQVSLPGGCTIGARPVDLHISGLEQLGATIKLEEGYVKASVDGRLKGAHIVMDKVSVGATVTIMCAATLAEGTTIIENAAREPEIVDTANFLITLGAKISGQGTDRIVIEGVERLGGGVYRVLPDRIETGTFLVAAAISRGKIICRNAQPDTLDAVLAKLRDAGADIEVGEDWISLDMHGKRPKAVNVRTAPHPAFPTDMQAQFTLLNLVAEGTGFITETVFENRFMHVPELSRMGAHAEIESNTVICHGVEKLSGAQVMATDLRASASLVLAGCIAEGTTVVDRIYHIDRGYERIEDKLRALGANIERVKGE

C[C@@H]1O[C@@H]1P(=O)(O)O [Fosfomycin, (2R,3S)-3-methyloxiranphosphonic acid]
Inhibition of MurA [1]: inhibits
Antibacterial activity ([2]; gram-negative and gram-positive bacteria including methicillin-resistant staphylococci): active
Mode of antibacterial action ([2]; in susceptible bacteria): bactericidal
Antibacterial efficacy [3]: efficacious
Antibacterial efficacy [4]: efficacious
Antibacterial efficacy (ESBL): efficacious

C[C@@H]1O[C@@H]1P(=O)([O-])[O-].O.[Ca+2] [calcium salt of fosfomycin, monohydrate of the calcium salt of fosfomycin]
Hygroscopic properties [5]: extraordinarily hygroscopic

C[C@@H]1O[C@@H]1P(=O)([O-])[O-].[Na+].[Na+] [sodium salt, disodium salt of fosfomycin]
Hygroscopic properties [5]: extraordinarily hygroscopic

C[C@@H]1O[C@@H]1P(=O)(O)O.NC(CO)(CO)CO [trometamol-fosfomycin]
Hygroscopic properties [5]: somewhat hygroscopic
